The values below are quoted from earlier work in patent publication US20050263150A1, “Systems and methods for the administration of drugs and medications” (priority 2004, published 2005).

Read-outs that look alike come from different tables or passages of the source.

The conditions of data set [1]: for duration of action: in vivo.
For data set [2] the following is noted: ketamine combined with benzodiazepines and barbiturates, extends ketamine's half-life.

Turning to `[N-]=[N+]=O` [Nitrous oxide], in data set [1], the duration of action is 3 to 5 min. For the same compound, the onset of action in data set [1] (sedative/analgesic) is 3 to 5 min.
For `CC(C)c1cccc(C(C)C)c1O` [Propofol], the solubility in water entry is on record as “almost completely insoluble in water”.
Turning to `C=CCC1(C(C)C#CCC)C(=O)N=C(O)N(C)C1=O` (stereo not drawn) [Methohexital], the duration of action entry in data set [1] was “less than 10 minutes”. The onset of action entry in data set [1] (procedural sedation) is “less than 1 minute”.
Regarding `CNC1(c2ccccc2Cl)CCCCC1=O` (stereo not drawn) [Ketamine, 2-(2-chlorophenyl)-2-(methylamino)-cyclohexanone], the “prolonging clinical recovery time” value in data set [2] is on record as “about 30%”.
